From patent US20220251084A1, “PROGRANULIN MODULATORS AND METHODS OF USING THE SAME” (ARKUDA THERAPEUTICS, priority 2019, published 2022)
Where a name gives a salt, the structure may show the parent alone.

These molecules were tested on progranulin (PGRN) secretion, BV-2 cells (assay: PGRN assay: progranulin induction cellular assay (ELISA of secreted mouse PGRN)). Details: Mus musculus, BV-2, PGRN assay, Table C; secreted mouse PGRN in cell culture medium, ELISA.
Assay type: cell-based
In short: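 Progranulin induction measured in BV-2 cells plated at about 80% confluence the day before, given 1 h to attach, then incubated 16 h. Secreted mouse PGRN quantified by ELISA.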

Compound	EC50 [µM]
CNC(=O)c1ccc2c(c1)[C@H](c1ccc(F)cc1)N(C(=O)OCC13CCN(CC1)CC3)CC2 [Compound 2059]	> 10
CN1C2CCC1CC(OC(=O)N1CCc3ccccc3[C@@H]1c1ccc(F)cc1)C2 (some centres unmarked) [Compound 2007]	1.19
C#CCOc1ccc2c(c1)CCN(C(=O)NCC13CCN(CC1)CC3)[C@@H]2c1ccc(F)cc1 [Compound 2085]	4.99
CN1CCC(OC(=O)N2CCc3ccccc3[C@@H]2c2ccc(F)cc2)(C(F)(F)F)CC1 [Compound 2128, 1-methyl-4-(trifluoromethyl)piperidin-4-yl (S)-1-(4-fluorophenyl)-3,4-dihydroisoquinoline-2(1H)-carboxylate]	7.54

Same assay, conditions: Mus musculus, BV-2, PGRN assay, Table D; secreted mouse PGRN in cell culture medium, ELISA

Compound	EC50 [µM]
O=C(N[C@@H]1CNCCOC1)N1CCc2ccccc2[C@@H]1c1ccc(F)cc1 (single isomer, unassigned) [Compound 2277]	1.06
CN(C)[C@@H]1CCN(C(=O)N2CCc3ccccc3[C@@H]2c2ccc(F)cc2)C1 [Compound 2312]	0.987
CN1CC[C@@H](N(C)C(=O)N2CCc3ccccc3[C@@H]2c2ccc(F)cc2)C1 [Compound 2265]	0.286
O=C(NCC1CNC[C@@H]1O)N1CCc2ccccc2[C@@H]1c1ccc(F)cc1 (stereo partly drawn) [Compound 2308, (S)-1-(4-fluorophenyl)-N-((cis-4-hydroxypyrrolidin-3-yl)methyl)-3,4-dihydroisoquinoline-2(1H)-carboxamide]	2.94
O=C(OC[C@@H]1CCN1)N1CCc2ccccc2[C@@H]1c1ccc(F)cc1 [Compound 2239, (S)-(S)-azetidin-2-ylmethyl 1-(4-fluorophenyl)-3,4-dihydroisoquinoline-2(1H)-carboxylate]	1.14
CN1CC[C@@H](OC(=O)N2CCc3ccccc3[C@@H]2c2ccc(F)cc2)C1 [Compound 2250, (R)-1-methylpyrrolidin-3-yl (S)-1-(4-fluorophenyl)-3,4-dihydroisoquinoline-2(1H)-carboxylate hydrochloride]	0.1

Same assay, conditions: mouse BV2 cells

Compound	secretion of progranulin
O=C(O[C@H]1CN2CCC1CC2)N1CCc2ccccc2[C@@H]1c1ccccc1 [Solifenacin, reference compound]	causes the secretion of progranulin
